“And” between values parts separate entries of the source, which are not always exact repeats. Identical values can stand only once.
Key:
[1] = SPF in vitro / UVA PF from UV transmittance through thin film on PMMA plates; conditions: for SPF in vitro mean / UV APF: 0.75 mg/cm^2; for SPF P / UV APF P: P (after irradiation, 800 J/m^2-eff)
Protocol: For determining the SPF in vitro value, the protection performance of compounds according to certain embodiments of the present technology, against erythemally-effective UV radiation, largely confined to the UVB (290-320 nm) and short-wavelength UVA (320-340) region, was calculated from the measured in vitro transmittance. The in vitro UVA PF, the UVA protection (320-400 nm), was calculated from the measured in vitro transmittance after irradiation. The Critical Wavelength Value was defined as the wavelength at which the integral of the spectral absorbance curve reached 90% of the integral over the UV spectrum from 290 to 400 nm. It has been settled that this value must be equal or over 370 nm so as to classify the product as broad-spectrum. The study consisted in a comparative assay of non-treated plates against plates treated with each of the compounds and was based on the evaluation of UV-transmittance through a thin film of sunscreen sample spread on a roughened substrate, before an after exposure to a controlled dose of UV radiation from a UV source. A Kontron 933 spectrophotometer equipped with a UV source, an integrating sphere and a monochromatic light able to deliver a flow of energy between 290 and 400 nm was used. The transmittance values were measured at 1 nm intervals. A 10-4 precision laboratory balance was used to control deposited product weight. The irradiation was provided by Sunset Atlas CPS+ with standard filter. Temperature regulation of the equipment was done in the range of 25-35° C. A pre-irradiation dose of 4 times 200 J/m^2-eff (800 J/m^2-eff) was delivered. The substrate was the material to which the sunscreen product was applied. Polymethylmethacrylate (PMMA) plates were used and were roughened on one side to a three-dimensional surface topography of 5 micrometers. Each compound was weighted and applied evenly to the PMMA plate with a 2-phase spreading to achieve a 0.75 mg/cm^2 weight/surface ratio. Spreading was performed with a light spreading move for approximately 30 seconds followed by spreading with greater pressure for approximately 30 seconds. The resulting sample was left to equilibrate for 15 minutes in the dark at room temperature to ensure a self-leveling of the formula. To account for lack of photostability, a pre-irradiation was necessary. The pre-irradiation dose was 4 minimal erythema dose (MEDs), equivalent to 800 J/m^2-eff. Five measurements of spectral irradiance transmitted for each wavelength through the PMMA plate covered with the sunscreen product were obtained after pre-irradiation of the sunscreen product [P1( ), P2( ), P3( ), P4( ) and P5( )]. For each compound, mean absorbance values were determined from at least three individual PMMA plates. To validate the accuracy of the results, a control product with an established SPF of 18-20, Lot 11T0313 was tested simultaneously with the compounds. SPF in vitro was calculated for each plate using the Colipa 2011 equation.

[2] = Thermal stability by Thermogravimetric Analysis (TGA); type: physicochemical; conditions: for T onset: by intersection points of tangents
Protocol: Briefly, the residual weight (%) of the compounds was measured at different temperatures, including 100° C. for water boiling, and other temperatures corresponding to extrusion processes, and the T onset (° C.) by intersection points of tangents was checked. The results are represented in Table 16 below, and in FIG. 6.

Row | Residual weight % at different temperatures ([2]; 100 (° C.)) | Residual weight % at different temperatures ([2]; 190 (° C.)) | Residual weight % at different temperatures ([2]; 210 (° C.)) | Residual weight % at different temperatures ([2]; 250 (° C.)) | T onset [2] | Compound | SPF Change % [1] | ΔSPF [1] | SPF in vitro mean [1] | UV APF [1] | SPF P [1] | UV APF P [1]
1 |  |  |  |  |  | CCOC(=O)C1CSC2=C(CC(C)(C)C/C2=N\c2ccc(/N=N/c3ccccc3)cc2)N1 (centres unmarked) [Formula 15] | 41% | 8 | 28.31 | 4.52 | 27.34 | 4.49
2 |  |  |  |  |  | CCOC(=O)C1CSC2=C(CC(C)(C)C/C2=N\c2ccc(-c3ccccc3)cc2)N1 (centres unmarked) [Formula 19] | 35% | 7 | 27.12 | 4.07 | 24.31 | 3.92
3 |  |  |  |  |  | CCOC(=O)CNC1=C/C(=N/c2ccc(-c3ccccc3)cc2)CC(C)(C)C1 [Formula 31] | 63% | 13 | 32.75 | 2.95 | 30.52 | 2.88
4 |  |  |  |  |  | CCOC(=O)CNC1=C/C(=N/c2ccc(/N=N/c3ccccc3)cc2)CC(C)(C)C1 [Formula 33] | 81% | 16 | 36.23 | 4.26 | 33.16 | 4.36
5 | 99.5 w % | 99.2 w % | 99.0 w % | 79.5 w % | 226.0 C | CCOC(=O)CNC1=C/C(=N/c2ccc(Nc3ccccc3)cc2)CC(C)(C)C1 [Formula 47] |  |  |  |  |  | 
6 | 99.2 w % | 98.8 w % | 97.8 w % | 72.9 w % | 215.7 C | CCOC(=O)CNC1=C/C(=N/c2ccc(N3CCOCC3)cc2)CC(C)(C)C1 [Formula 48] |  |  |  |  |  | 
7 | 99.3 w % | 97.8 w % | 97.2 w % | 70.2 w % | 215.3 C | CCOC(=O)CNC1=C/C(=N/c2ccc(OCc3ccccc3)cc2)CC(C)(C)C1 [Formula 49] |  |  |  |  |  | 
8 | 99.2 w % | 98.1 w % | 97.9 w % | 69.3 w % | 229.5 C | CCOC(=O)CNC1=C/C(=N/c2ccc(Oc3ccccc3)cc2)CC(C)(C)C1 [Formula 50] |  |  |  |  |  | 
9 | 99.5 w % | 96.1 w % | 85.8 w % | 65.1 w % | 188.0 C | CCOC(=O)CNC1=C/C(=N/c2ccc(C(C)=O)cc2)CC(C)(C)C1 [Formula 51] |  |  |  |  |  | 
10 | 95.9 w % | 92.4 w % | 86.0 w % | 63.2 w % | 199.1 C | CCOC(=O)CNC1=C/C(=N/c2ccc(N(C)C)cc2)CC(C)(C)C1 [Formula 52] |  |  |  |  |  | 
11 | 99.5 w % | 98.6 w % | 86.3 w % | 40.5 w % | 199.3 C | CCOC(=O)CNC1=C/C(=N/c2ccc(OC(F)(F)F)cc2)CC(C)(C)C1 [Formula 53] |  |  |  |  |  | 
12 | 98.0 w % | 84.0 w % | 72.7 w % | 60.1 w % | 176.7 C | CCOC(=O)CNC1=C/C(=N/c2ccc(NC(=O)OC(C)(C)C)cc2)CC(C)(C)C1 [Formula 54] |  |  |  |  |  | 
13 | 97.8 w % | 96.4 w % | 92.2 w % | 71.2 w % | 205.0 C | CCOC(=O)CNC1=C/C(=N/c2ccc(Cn3cncn3)cc2)CC(C)(C)C1 [Formula 55] |  |  |  |  |  | 
14 | 99.4 w % | 98.9 w % | 94.3 w % | 68.0 w % | 207.6 C | CCOC(=O)CNC1=C/C(=N/c2ccc3c(c2)OCCO3)CC(C)(C)C1 [Formula 56] |  |  |  |  |  | 
15 | 97.8 w % | 85.6 w % | 77.0 w % | 58.2 w % | 168.9 C | CCOC(=O)C1CSC2=C(CC(C)(C)C/C2=N\c2ccc(OCc3ccccc3)cc2)N1 (centres unmarked) [Formula 60] |  |  |  |  |  | 
16 | 99.0 w % | 98.2 w % | 92.6 w % | 62.1 w % | 205.0 C | CCOC(=O)C1CSC2=C(CC(C)(C)C/C2=N\c2ccc(Oc3ccccc3)cc2)N1 (centres unmarked) [Formula 61] |  |  |  |  |  | 
17 | 94.5 w % | 85.0 w % | 75.8 w % | 54.0 w % | 186.1 C | CCOC(=O)C1CSC2=C(CC(C)(C)C/C2=N\c2ccc(N3CCOCC3)cc2)N1 (centres unmarked) [Formula 62] |  |  |  |  |  | 
18 | 98.7 w % | 97.3 w % | 88.4 w % | 68.0 w % | 197.4 C | C#Cc1ccc(/N=C2\CC(C)(C)CC3=C2SCC(C(=O)OCC)N3)cc1 (centres unmarked) [Formula 63] |  |  |  |  |  | 
19 | 97.2 w % | 87.7 w % | 80.3 w % | 60.9 w % | 187.0 C | CCOC(=O)C1CSC2=C(CC(C)(C)C/C2=N\c2ccc(Nc3ccccc3)cc2)N1 (centres unmarked) [Formula 64] |  |  |  |  |  | 
20 | 95.3 w % | 91.7 w % | 89.3 w % | 80.3 w % | 200.2 C | CCOC(=O)C1CSC2=C(CC(C)(C)C/C2=N\c2ccc(Cn3cncn3)cc2)N1 (centres unmarked) [Formula 65] |  |  |  |  |  | 
21 | 99.4 w % | 92.9 w % | 82.0 w % | 68.1 w % | 190.5 C | COC(=O)C(Cc1ccccc1)NC1=C/C(=N/c2ccc(F)cc2)CC(C)(C)C1 (centres unmarked) [Formula 67] |  |  |  |  |  | 
22 | 97.9 w % | 93.6 w % | 87.3 w % | 75.0 w % | 197.2 C | COC(=O)C(Cc1ccccc1)NC1=C/C(=N/c2ccc(OC)cc2)CC(C)(C)C1 (centres unmarked) [Formula 68] |  |  |  |  |  | 
23 | 99.3 w % | 95.2 w % | 88.0 w % | 82.5 w % | 193.6 C | CCCCCCCCOc1ccc(/N=C2/C=C(NC(Cc3ccccc3)C(=O)OC)CC(C)(C)C2)cc1 (centres unmarked) [Formula 69] |  |  |  |  |  | 
24 | 99.6 w % and 99.5 w % | 99.4 w % and 99.2 w % | 99.3 w % and 99.0 w % | 97.7 w % and 91.7 w % | 256.0 C and 248.2 C | C#Cc1ccc(NC2C=C(NCC(=O)OCC)CC(C)(C)C2)cc1 (centres unmarked) [Formula 76] |  |  |  |  |  | 
25 | 99.2 w % | 91.2 w % | 83.8 w % | 66.4 w % | 187.4 C | CCOC(=O)C1CSC2=C(CC(C)(C)CC2Nc2ccccc2)N1 (centres unmarked) [Formula 77] |  |  |  |  |  | 

Row | Compound | Residual weight % at different temperatures ([2]; 100 (° C.)) | Residual weight % at different temperatures ([2]; 190 (° C.)) | Residual weight % at different temperatures ([2]; 210 (° C.)) | Residual weight % at different temperatures ([2]; 250 (° C.)) | T onset [2] | SPF Change % [1] | ΔSPF [1] | SPF in vitro mean [1] | UV APF [1] | SPF P [1] | UV APF P [1]
26 | CCOC(=O)CNC1=C/C(=N/c2ccccc2)CC(C)(C)C1 [Formula 46] | 99.4 w % | 99.1 w % | 98.4 w % | 52.4 w % | 215.2 C |  |  |  |  |  | 

— patent US20240254096A1, “ULTRAVIOLET AND VISIBLE RADIATION ABSORBING COMPOUNDS” (ELKIMIA INC., priority 2021, published 2024)
